The target of this assay is rBIIa/beta 1 sodium channels (Rattus norvegicus, UniProt P04775). In words: Electrophysiological assay, two-electrode voltage clamp in Xenopus oocytes. It is filed as cell-based. The note with it: apparent inhibition constant from single point inhibition data; inactivated-state voltage protocol; channels expressed in Xenopus oocytes; read-out: RBIIA/β1 Ki. The protocol: Electrophysiological Assay:
Electrophysiological Assay was used to measure potencies of compounds of the present invention rBIIa/beta 1 sodium channels expressed in Xenopus oocytes.
Preparation of cRNA encoding cloned rat brain type IIa (rBIIa) and beta 1 (β1): cDNA clones encoding the rat brain beta 1 subunit were cloned in house using standard methods, and mRNA were prepared by standard methods. mRNA encoding rBIIa was provided by Dr. A. Golden (UC Irvine). The mRNAs were diluted and stored at −80° C. in 1 μL aliquots until injection.
Preparation of oocytes: Mature female Xenopus laevis were anaesthetized (20-40 min) using 0.15% 3-aminobenzoic acid ethyl ester (MS-222) following established procedures (Woodward, R. M., et al., Mol. Pharmacol. 41:89-103 (1992)).
Two to six ovarian lobes were surgically removed. Oocytes at developmental stages V-VI were dissected from the ovary, oocytes were still surrounded by enveloping ovarian tissues. Oocytes were defolliculated on the day of surgery by treatment with collagenase (0.5 mg/mL Sigma Type I, or Boehringer Mannheim Type A, for 0.5-1 hr). Treated oocytes were vortexed to dislodge epithelia, washed repeatedly and stored in Barth's medium containing 88 mM NaCl, 1 mM KCl, 0.41 mM CaCl2, 0.33 mM Ca(NO3)2, 0.82 mM MgSO4, 2.4 mM NaHCO3, 5 mM HEPES, pH 7.4 adjusted with 0.1 mg/mL gentamycin sulphate.
Micro-injection of oocytes: Defolliculated oocytes were micro-injected using a Nanoject injection system (Drummond Scientific Co., Broomall, Pa.). Injection pipettes were beveled to minimize clogging. Tip diameter of injection pipettes was 15-35 μm. Oocytes were microinjected with approximately 50 nL 1:10 ratio mixtures of cRNAs for rBIIa and beta 1 respectively.
Electrophysiology: Membrane current responses were recorded in frog Ringer solution containing 115 mM NaCl, 2 mM KCl, 1.8 mM CaCl2, 5 mM HEPES, pH 7.4. Electrical recordings were made using a conventional two-electrode voltage clamp (Dagan TEV-200) over periods ranging between 1-7 days following injection. The recording chamber was a simple gravity fed flow-through chamber (volume […] depending on adjustment of aspirator). Oocytes were placed in the recording chamber, impaled with electrodes and continuously perfused (5-15 mL min^−1) with frog Ringer's solution. The tested compounds were applied by bath perfusion.
Voltage protocols for evoking sodium channel currents: The standard holding potential for whole oocyte clamp was −120 mV. Standard current-voltage relationships were elicited by 40 ms depolarizing steps starting from −60 mV to +50 mV in 10 mV increments. Peak currents were measured as the maximum negative current after depolarizing voltage steps. The voltage from maximum current response was noted and used for the next voltage protocol.
The purpose was to find compounds that are state dependent modifiers of neuronal sodium channels. Preferably, the compounds have a low affinity for the rested/closed state of the channel, but a high affinity for the inactivated state. The following voltage protocol was used to measure a compounds affinity for the inactivated state. Oocytes were held at a holding potential of −120 mV. At this membrane voltage, nearly all of the channels would be in the closed state. Then a 4 second depolarization was made to the voltage where the maximum current was elicited. At the end of this depolarization, nearly all the channels would be in the inactivated state. A 10 ms hyperpolarizing step was then made in order to remove some channels from the inactivated state. A final depolarizing test pulse was used to assay the sodium current after this prolonged depolarization (see analysis below). Sodium currents were measured at this test pulse before and after the application of the tested compound. Data was acquired using pClamp 8.0 software and analyzed with clampfit software (Axon instruments). […]
A general note: Two-electrode voltage clamp holds a large cell at a set potential and records current.

For the compound `CCOc1ccc(-c2ccc(C(N)=O)cn2)cc1` [2-(4-ethoxyphenyl)pyridine-5-carboxamide, 2-(4-Ethoxyphenyl)pyridine-5-carboxamide], the Ki was determined as 29.7 µM.
As to `CC(C)c1ccc(-c2cc(C(N)=O)ccn2)cc1` [2-(4-i-Propylphenyl)pyridine-4-carboxamide], the Ki amounted to 39.2 µM.
As for `CC(C)(C)c1ccc(-c2ccc(C(N)=O)cn2)cc1` [2-(4-tert-Butylphenyl)pyridine-5-carboxamide], the figure is 32.3 µM; as for `NC(=O)c1ccnc(-c2ccc(Oc3ccc(F)cc3)cc2)c1` [2-[4-(4-Fluorophenoxy)phenyl]pyridine-4-carboxamide], 6.91 µM; as for `CSc1ccc(-c2cncc(C(N)=O)c2)cc1` [5-(4-Thiomethylphenyl)pyridine-3-carboxamide], 29 µM.
For `NC(=O)c1ccnc(-c2ccc(Oc3ccccc3)cc2)c1` [2-(4-Phenoxyphenyl)pyridine-4-carboxamide], the Ki came to 22.3 µM.
With `NC(=O)c1cccnc1-c1ccc(Oc2ccc(F)cc2)cc1` [2-[4-(4-Fluorophenoxy)phenyl]pyridine-3-carboxamide], the Ki was found to be 13.6 µM.
Turning to `CSc1ccc(-c2ccc(C(N)=O)cn2)cc1` [2-(4-Thiomethylphenyl)pyridine-5-carboxamide], the Ki amounted to 35.6 µM.
Take `NC(=O)c1cncc(-c2ccc3ccccc3c2)c1` [5-(2-naphthyl)pyridine-3-carboxamide, 5-(2-Naphthyl)pyridine-3-carboxamide]: the Ki was 35.1 µM.
For `O=C(NCCN1CCCCC1)c1ccc(-c2ccc(Oc3ccc(F)cc3)cc2)nc1` [2-[4-(4-Fluorophenoxy)phenyl]pyridine 5-carboxylic acid 2-(N-piperidinyl)ethylamide], the Ki came out at 0.95 µM.
Turning to `CC(C)(C)c1ccc(-c2cncc(C(N)=O)c2)cc1` [5-(4-tert-Butylphenyl)pyridine-3-carboxamide], the Ki was 18.6 µM.
`COc1ccc(-c2cc(C(N)=O)ccn2)cc1` [2-(4-Methoxyphenyl)pyridine-4-carboxamide]: the Ki is 6.17 µM.
Consider `NC(=O)c1cncc(-c2ccc(Oc3ccccc3)cc2)c1` [5-(4-Phenoxyphenyl)pyridine-3-carboxamide], for which the Ki amounted to 5.43 µM.
`CCOc1ccc(-c2cncc(C(N)=O)c2)cc1` [5-(4-ethoxyphenyl)pyridine-3-carboxamide, 5-(4-Ethoxyphenyl)pyridine-3-carboxamide]: the Ki worked out at 36.2 µM.
Under `O=C(NCCN1CCCCC1)c1cncc(-c2ccc(Oc3ccc(F)cc3)cc2)c1` [5-[4-(4-fluorophenoxy)phenyl]pyridine 3-carboxylic acid 2-(N-piperidinyl)ethylamide] stands 0.78 µM; under `NC(=O)c1ccc(-c2ccc(OC(F)(F)F)cc2)nc1` [2-(4-Trifluoromethoxyphenyl)pyridine-5-carboxamide], 34.2 µM; under `CCCCc1ccc(-c2cncc(C(N)=O)c2)cc1` [5-(4-n-Butylphenyl)pyridine-3-carboxamide], 11.1 µM.
On to `CCOc1ccc(-c2cc(C(N)=O)ccn2)cc1` [2-(4-ethoxyphenyl)pyridine-4-carboxamide, 2-(4-Ethoxyphenyl)pyridine-4-carboxamide], for which the Ki turned out to be 14.7 µM.
Consider `CC(C)(C)c1ccc(-c2cc(C(N)=O)ccn2)cc1` [2-(4-tert-Butylphenyl)pyridine-4-carboxamide], for which the Ki is 53.1 µM.
Consider `NC(=O)c1cncc(-c2ccc(C(F)(F)F)cc2)c1` [5-(4-Trifluoromethylphenyl)pyridine-3-carboxamide], for which the Ki is 23 µM.
Turning to `NC(=O)c1ccnc(-c2ccc(OC(F)(F)F)cc2)c1` [2-(4-Trifluoromethoxyphenyl)pyridine-4-carboxamide], the Ki is 24.7 µM.
For `NC(=O)c1ccc(-c2ccc3ccccc3c2)nc1` [2-(2-naphthyl)pyridine-5-carboxamide, 2-(2-Naphthyl)pyridine-5-carboxamide], the Ki amounted to 28.1 µM.
Regarding `COc1ccc(-c2ccc(C(N)=O)cn2)cc1` [2-(4-Methoxyphenyl)pyridine-5-carboxamide], the Ki was 44.6 µM.
Turning to `CCCCc1ccc(-c2ccc(C(N)=O)cn2)cc1` [2-(4-n-Butylphenyl)pyridine-5-carboxamide], the Ki stood at 24.5 µM.
As for `NC(=O)c1ccnc(-c2ccc(-c3ccccc3)cc2)c1` [2-(2-phenylphenyl)pyridine-4-carboxamide, 2-(4-Phenylphenyl)pyridine-4-carboxamide], the figure is 24.9 µM; as for `NC(=O)c1ccc(-c2ccc(-c3ccccc3)cc2)nc1` [2-(2-phenylphenyl)pyridine-5-carboxamide, 2-(4-Phenylphenyl)pyridine-5-carboxamide], 40.7 µM; as for `CCCCc1ccc(-c2cc(C(N)=O)ccn2)cc1` [2-(4-n-Butylphenyl)pyridine-4-carboxamide], 32.9 µM.
Consider `NC(=O)c1cncc(-c2ccc(OC(F)(F)F)cc2)c1` [5-(4-Trifluoromethoxyphenyl)pyridine-3-carboxamide], for which the Ki was 25 µM.
As for `NC(=O)c1ccc(-c2ccc(C(F)(F)F)cc2)nc1` [2-(4-Trifluoromethylphenyl)pyridine-5-carboxamide], the Ki was 24.7 µM.
Consider `NC(=O)c1ccc(-c2ccc(Oc3ccccc3)cc2)nc1` [2-(4-Phenoxyphenyl)pyridine-5-carboxamide], for which the Ki worked out at 14.6 µM.
As for `COc1ccc(-c2cncc(C(N)=O)c2)cc1` [5-(4-Methoxyphenyl)pyridine-3-carboxamide], the Ki is 54.4 µM.

The values above are taken from US7943643B2, “Aryl substituted pyridines and the use thereof” (Purdue Pharma L.P., priority 2001, dated 2011).
